In paper PMC10518257 (Nature Cancer, 2023):
pIC50: −log10 of the molar value. Where “and” joins values, the source holds several entries; their conditions need not be identical. Identical values can stand only once. Like-named read-outs stand apart in the source and are kept apart here.

Assays:
[1] = Pharmacokinetic analysis of vepafestinib in rats (microdialysis PFC, CSF, plasma); assay type: in vivo, male Han Wistar rats; details: rats, 50 mg/kg, individual animals, 50 mg/kg; for concentration at 480 min: read-out: Concentration in Cerebrospinal fluid; for concentration at 60 min: read-out: Concentration in Plasma (total); for concentration at 1500 min: read-out: Concentration in Prefrontal cortex
KDR = biological target: T1, KDR (Homo sapiens, UniProt P35968); experiment: Dose-response IC50 on off-target kinases; assay type: biochemical
T1 construct: purchased Carna Biosciences

[2] = system: RET^G810R phosphorylation in Ba/F3 KIF5B–RET^G810R allograft tumors; experiment: Western blotting of tumors 1 h after dosing (target engagement); assay type: in vivo, mice; details: 10 mg per kg and 30 mg per kg
[3] = system: NIH-3T3-CCDC6::RET xenografts; experiment: Subcutaneous xenograft efficacy study
[4] = system: phospho-RET and phospho-ERK in Ba/F3 KIF5B–RET^WT tumors; experiment: Western blotting of tumors after a single dose (target engagement); assay type: in vivo, mice; details: single dose 50 mg per kg
[5] = system: NIH-3T3 CCDC6-RET luciferase cells implanted intracranially; experiment: Intracranial efficacy study; assay type: in vivo, nude mice; details: 50 mg per kg BID from day 5 after implantation
LC-2/ad NSCLC xenograft = experiment: Subcutaneous xenograft efficacy study; assay type: in vivo, BALB/c nude mice

T1 sequence (P35968 20-1356): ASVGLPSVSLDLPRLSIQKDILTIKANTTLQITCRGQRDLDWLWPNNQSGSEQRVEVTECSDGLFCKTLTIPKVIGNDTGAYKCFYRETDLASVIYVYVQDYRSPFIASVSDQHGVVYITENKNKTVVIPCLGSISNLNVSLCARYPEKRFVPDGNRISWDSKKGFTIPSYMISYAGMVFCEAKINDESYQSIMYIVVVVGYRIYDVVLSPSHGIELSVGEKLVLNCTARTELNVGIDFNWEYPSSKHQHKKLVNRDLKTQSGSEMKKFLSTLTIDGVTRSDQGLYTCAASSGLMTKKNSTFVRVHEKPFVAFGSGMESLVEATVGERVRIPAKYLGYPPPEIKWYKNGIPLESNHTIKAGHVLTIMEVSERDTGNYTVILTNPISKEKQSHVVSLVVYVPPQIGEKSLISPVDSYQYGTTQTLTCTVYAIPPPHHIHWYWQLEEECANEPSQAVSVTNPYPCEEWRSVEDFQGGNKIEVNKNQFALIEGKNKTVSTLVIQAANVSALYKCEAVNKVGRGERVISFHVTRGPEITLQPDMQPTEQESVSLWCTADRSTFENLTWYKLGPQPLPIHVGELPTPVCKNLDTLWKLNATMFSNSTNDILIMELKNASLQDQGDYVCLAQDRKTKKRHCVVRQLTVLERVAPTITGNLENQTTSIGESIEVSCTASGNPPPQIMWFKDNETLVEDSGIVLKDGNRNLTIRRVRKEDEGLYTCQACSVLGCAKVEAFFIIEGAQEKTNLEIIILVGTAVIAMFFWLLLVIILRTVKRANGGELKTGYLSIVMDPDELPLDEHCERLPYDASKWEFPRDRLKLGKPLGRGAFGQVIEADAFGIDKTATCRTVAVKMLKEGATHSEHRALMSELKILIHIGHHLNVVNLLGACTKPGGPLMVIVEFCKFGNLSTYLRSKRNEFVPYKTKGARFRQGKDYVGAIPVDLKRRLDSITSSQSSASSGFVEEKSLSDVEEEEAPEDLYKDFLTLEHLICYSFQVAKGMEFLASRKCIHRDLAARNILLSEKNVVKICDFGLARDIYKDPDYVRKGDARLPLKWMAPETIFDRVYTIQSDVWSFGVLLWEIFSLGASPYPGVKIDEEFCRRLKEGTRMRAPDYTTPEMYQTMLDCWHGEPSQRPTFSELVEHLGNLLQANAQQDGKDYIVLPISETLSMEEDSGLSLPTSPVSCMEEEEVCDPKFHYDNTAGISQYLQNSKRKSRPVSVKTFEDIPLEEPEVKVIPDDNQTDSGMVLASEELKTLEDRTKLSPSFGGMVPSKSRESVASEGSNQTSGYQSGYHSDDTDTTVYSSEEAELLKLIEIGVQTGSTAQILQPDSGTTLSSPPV

COCc1ccc(NC(=O)c2c(C#CCN3CCOCC3)n(C3(C)CC3)c3ncnc(N)c23)cc1 [Vepafestinib, 4-amino-N-[4-(methoxymethyl)phenyl]-7-(1-methylcyclopropyl)-6-[3-(morpholin-4-yl)prop-1-yn-1-yl]-7H-pyrrolo[2,3-d]pyrimidine-5-carboxamide]
concentration at 480 min ([1]; 30 min): 1290 nM and 1440 nM and 2760 nM and 1580 nM
concentration at 60 min ([1]; 30 min): 15700 nM and 13100 nM and 11800 nM
concentration at 1500 min ([1]; 30 min): 30.2 nM and 10.2 nM and 22.2 nM and 39.9 nM
concentration at 480 min ([1]; 60 min): 648 nM and 1420 nM and 2370 nM and 1210 nM
concentration at 60 min ([1]; 60 min): 11900 nM and 11400 nM and 11800 nM
concentration at 1500 min ([1]; 60 min): 883 nM and 396 nM and 691 nM and 1135 nM
concentration at 1500 min ([1]; 90 min): 1549 nM and 742 nM and 1277 nM and 1593 nM
concentration at 480 min ([1]; 120 min): 1780 nM and 1160 nM and 2340 nM and 756 nM
concentration at 60 min ([1]; 120 min): 16400 nM and 8330 nM and 13200 nM
concentration at 1500 min ([1]; 120 min): 1089 nM and 1363 nM and 1680 nM
concentration at 1500 min ([1]; 150 min): 804 nM and 1293 nM and 1118 nM and 1680 nM
concentration at 60 min ([1]; 180 min): 6200 nM and 14400 nM and 6310 nM and 8540 nM
concentration at 1500 min ([1]; 180 min): 761 nM and 1438 nM and 957 nM and 2162 nM
concentration at 1500 min ([1]; 210 min): 555 nM and 1724 nM and 852 nM and 1666 nM
concentration at 480 min ([1]; 240 min): 1730 nM and 963 nM and 1170 nM and 522 nM
concentration at 60 min ([1]; 240 min): 3870 nM and 13700 nM and 7630 nM and 7250 nM
concentration at 1500 min ([1]; 240 min): 463 nM and 1651 nM and 722 nM and 1680 nM
concentration at 1500 min ([1]; 270 min): 359 nM and 1856 nM and 877 nM and 1281 nM
concentration at 60 min ([1]; 300 min): 4840 nM and 9390 nM and 5350 nM and 4540 nM
concentration at 60 min ([1]; 360 min): 5830 nM and 7730 nM and 5370 nM and 2620 nM
concentration at 480 min ([1]; 480 min): 435 nM and 486 nM and 321 nM
concentration at 60 min ([1]; 480 min): 134 nM and 4450 nM and 4860 nM and 4260 nM
concentration at 1500 min ([1]; 1500 min): 123 nM
pIC50 (KDR): 6.76
inhibition of RET^G810R phosphorylation in tumors [2]: completely inhibited
Area Under Curve of tumor growth, Mean ([3]; 25 mg/kg BID): 1601
Tumor volume ([3]; 25 mg/kg BID, day 0, individual animals): 93.59 mm3 (2×) and 90.28 mm3 (3×)
Tumor volume ([3]; 25 mg/kg BID, day 2, individual animals): 193.69 mm3 and 110.58 mm3 and 112.28 mm3 and 116.25 mm3 (2×)
Tumor volume ([3]; 25 mg/kg BID, day 5, individual animals): 537.65 mm3 and 353.84 mm3 and 294.89 mm3 and 435.05 mm3 and 334.49 mm3
Tumor volume ([3]; 25 mg/kg BID, day 8, individual animals): 612.84 mm3 and 590.68 mm3 and 301.59 mm3 and 585.96 mm3 and 389.56 mm3
Tumor volume ([3]; 25 mg/kg QD, day 0, individual animals): 85.5 mm3 (2×) and 93.59 mm3 and 90.28 mm3 (2×)
Tumor volume ([3]; 25 mg/kg QD, day 5, individual animals): 285.69 mm3 and 281.26 mm3 and 438.74 mm3 and 367.92 mm3 and 382.08 mm3
Tumor volume ([3]; 25 mg/kg QD, day 8, individual animals): 705.04 mm3 and 750.45 mm3 and 1169.92 mm3 and 945.8 mm3 and 1108.35 mm3
Area Under Curve of tumor growth, Mean ([3]; 50 mg/kg BID): 678.7
Tumor volume ([3]; 50 mg/kg BID, day 0, individual animals): 90.28 mm3
Tumor volume ([3]; 50 mg/kg BID, day 5, individual animals): 225.29 mm3 and 277.15 mm3 and 217.15 mm3 and 205.88 mm3 and 223.64 mm3
Tumor volume ([3]; 50 mg/kg BID, day 8, individual animals): 231.59 mm3 and 332.9 mm3 and 291.54 mm3 and 235.62 mm3 (2×)
Tumor volume ([3]; 50 mg/kg QD, day 0, individual animals): 93.59 mm3 and 83.97 mm3 (2×) and 85.5 mm3 and 90.28 mm3
Tumor volume ([3]; 50 mg/kg QD, day 5, individual animals): 270.08 mm3 and 180.15 mm3 and 189.86 mm3 and 245.54 mm3 and 226.78 mm3
Tumor volume ([3]; 50 mg/kg QD, day 8, individual animals): 466.45 mm3 and 389.65 mm3 and 491.45 mm3 and 378.3 mm3 and 446.6 mm3
Area Under Curve of tumor growth, Mean ([3]; 100 mg/kg QD): 371
Tumor volume ([3]; 100 mg/kg QD, day 0, individual animals): 83.97 mm3 (4×) and 85.5 mm3
Tumor volume ([3]; 100 mg/kg QD, day 5, individual animals): 153.78 mm3 and 149.63 mm3 and 176.28 mm3 and 145.47 mm3 and 154.42 mm3
Tumor volume ([3]; 100 mg/kg QD, day 8, individual animals): 153.78 mm3 and 197.55 mm3 and 200.12 mm3 (2×) and 192.42 mm3
duration of complete inhibition of phospho-RET and phospho-ERK in tumors [4]: at least 8 h
median survival [5]: 52 days
Tumor Volume (mm3) Mean (LC-2/ad NSCLC xenograft; 25 mg/kg BID, day 0): 143.372 mm3
Tumor Volume (mm3) Mean (LC-2/ad NSCLC xenograft; 25 mg/kg BID, day 4): 128.076 mm3
Tumor Volume (mm3) Mean (LC-2/ad NSCLC xenograft; 25 mg/kg BID, day 8): 127.413 mm3
Tumor Volume (mm3) Mean (LC-2/ad NSCLC xenograft; 25 mg/kg BID, day 11): 123.160 mm3
Tumor Volume (mm3) Mean (LC-2/ad NSCLC xenograft; 25 mg/kg BID, day 15): 151.811 mm3
Tumor Volume (mm3) Mean (LC-2/ad NSCLC xenograft; 50 mg/kg BID, day 0): 140.580 mm3
Tumor Volume (mm3) Mean (LC-2/ad NSCLC xenograft; 50 mg/kg BID, day 4): 117.460 mm3
Tumor Volume (mm3) Mean (LC-2/ad NSCLC xenograft; 50 mg/kg BID, day 8): 119.902 mm3
Tumor Volume (mm3) Mean (LC-2/ad NSCLC xenograft; 50 mg/kg BID, day 11): 105.200 mm3
Tumor Volume (mm3) Mean (LC-2/ad NSCLC xenograft; 50 mg/kg BID, day 15): 98.169 mm3
Tumor Volume (mm3) Mean (LC-2/ad NSCLC xenograft; 50 mg/kg QD, day 0): 140.683 mm3
Tumor Volume (mm3) Mean (LC-2/ad NSCLC xenograft; 50 mg/kg QD, day 4): 139.893 mm3
Tumor Volume (mm3) Mean (LC-2/ad NSCLC xenograft; 50 mg/kg QD, day 8): 112.730 mm3
Tumor Volume (mm3) Mean (LC-2/ad NSCLC xenograft; 50 mg/kg QD, day 11): 118.521 mm3
Tumor Volume (mm3) Mean (LC-2/ad NSCLC xenograft; 50 mg/kg QD, day 15): 131.887 mm3
